Drawing on a melting point compilation (Tetko et al.; mined from patent text by program, amines drawn as free bases though some values may be those of a salt), this text covers melting point for 37 compounds.

Broadly, the melting point is the temperature of the solid-liquid transition.

Compound `O=C1Nc2ccccc2C1c1nc(Cl)nc2nn(C3CCCC3)cc12` (configuration not stated) gave a melting point of 270 to 273 °C. To `CCOc1ccccc1CNC(=O)c1ccc2cnccc2n1` belongs 79 to 80 °C; to `Cc1ccc2[nH]c(=O)c(-c3ccccc3)cc2c1`, 212 to 213 °C. The result for `Nc1nc(Cl)nc(C2CC2)n1` reads 139 to 142 °C. To `CCCCC(CNC(C)=O)(Cn1cncn1)c1ccccc1` (configuration not stated) belongs 112 to 115 °C; to `COc1cc(C(=O)NC2CC(C)(C)N(C)C(C)(C)C2)ccc1-c1cc2cc(Cl)c(Cl)cc2[nH]1`, 260 °C.

Turning to `Cc1ccc(C(=O)c2ccccc2Cl)n1N`, the melting point is 84 to 85 °C. To `O=C1c2ccccc2C(=O)N1c1cccc(Br)c1` belongs 176 to 179 °C; to `C=CCc1c([N+](=O)[O-])ccc2c1OC(CO)CO2` (configuration not stated), 67 °C; to `COc1cccc(Sc2ccccc2CC(=O)O)c1`, 63 to 65 °C. With `COc1cc(OC2CCN(S(=O)(=O)CCNC3CC3)CC2)ccc1CC(=O)N1CCN(c2ccccc2C)CC1C(N)=O` (configuration not stated), the melting point fell in the range of 69 to 110 °C. The result for `COc1ncnc(OC)c1NC(N)=S` reads 210 °C; that for `CNS(=O)(=O)c1cc(S(=O)(=O)Cl)c(Cl)cc1N`, 153 to 155 °C. To `O=C(Nc1ccc(Cl)cn1)N[C@@H]1C[C@@H]1c1cccc([N+](=O)[O-])c1` (racemic) belongs 201 to 202 °C.

`CC(=O)c1cc(Br)no1` came in with a melting point of 65 to 66 °C. As for `C#CCOc1ccc2c(C)nnc(Cl)c2c1`, the melting point was 169 to 171 °C. To `CN(C(=O)CSc1nccc(-c2ccccn2)n1)c1ccc(Cl)cc1` belongs 142 °C; to `O=C1N=C(N2CCNCC2)SC1=Cc1cccc(-c2cc(F)c(O)c(C34CC5CC(CC(C5)C3)C4)c2)c1`, 230 to 233 °C; to `CC(=O)OCCOc1ccc(C=Cc2ccc(S(C)(=O)=O)cc2)cc1`, 175 to 177 °C. For the compound `Oc1ccc2nc(-c3ccc(O)c(F)c3)oc2c1`, the melting point lay in the range of 269 to 271 °C. The result for `CS(=O)(=O)Nc1ccc(NC(=O)C(=O)N2CCC(Cc3ccccc3)CC2)cc1` reads 221 to 225 °C. To `O=C(O)c1cccc(Cc2c[nH]cn2)c1O` belongs 245 to 252 °C. The result for `Cc1ccnc2c1C(=O)CC(c1ccsc1)C2` (configuration not stated) reads 92 to 93 °C; that for `CC(C)(C)NC(=O)c1cc(Cl)ccc1N`, 126 to 127 °C; that for `COC(=O)C1=NN(c2ccc(F)cc2)C(C)(C(=O)OC)C1` (configuration not stated), 114 to 118 °C.

On to `Cc1cc(C)c2c(c1Br)CC=C2`, for which the melting point was determined as 34 °C.

`CCOC(=O)c1c(-c2ccccc2Cl)c2cc(CC)ccc2n(C)c1=O` gave a melting point of 125 to 126 °C.

Compound `Cc1cc(S(=O)(=O)N(C)CC(O)(CCl)c2ccccc2)ccc1Cl` (configuration not stated) displayed a melting point of 105 to 107 °C. `Cc1ccc(-c2ccccc2)cc1Cn1c(C)nn(C)c1=O` displayed a melting point of 139 °C. In turn, `COc1ccc(S(=O)(=O)CC(CS(=O)(=O)c2ccc(OC)cc2)C(=O)NO)cc1` showed a melting point of 174 °C. Take `Cc1cc(C)c(F)cc1F`: the melting point lay in the range of 30 to 31 °C. `Cc1n[nH]c(=O)c(-c2c(F)cc(F)cc2F)c1-c1ccc2ccccc2c1` displayed a melting point of 266 to 268 °C. The result for `Fc1cccc(F)c1Cn1c(-c2ccccc2)nc2ccccc21` reads 163 °C; that for `COC(=O)c1cc(Br)c(OC)cc1O`, 122 to 124 °C; that for `CCOC(=O)Cc1ccc(Cc2n[nH]c3c2c(=O)n(-c2ccccc2)c2ncccc32)cc1`, 263 to 264 °C. To `Oc1cncc2ccsc12` belongs 180 °C; to `CN(C)Cc1ccc2c(c1)nnn2Cc1c(Cl)c(Cl)cc2[nH]c(=O)c(=O)[nH]c12`, 282 °C.
